Assays:
[1] = system: S123DOX; experiment: Detection of in vitro enzyme activity of 23DOX (LC-MS of reaction product); type: biochemical, S. lycopersicum; settings: 50 μM substrate, crude extraction fraction of E. coli expressing S123DOX, 2-oxoglutaric acid, sodium ascorbate, FeSO4, pH 7.2
Description: (§1) First, in order to synthesize 23DOX in E. coli, the S123DOX gene and the Sc23DOX gene were each linked to a pCold ProS2 vector (manufactured by Takara Bio Inc.), and were introduced into E. coli BL21 (DE3). The obtained recombinant E. coli was cultured at 37° C. until the OD600 value reached 0.5, was cooled to 15° C., and was left to stand for 30 minutes. IPTG was added thereto so that the final concentration reached 0.1 mM, and the mixture was cultured under shaking at 15° C. for 24 hours, to induce expression of the recombinant protein.
(§2) Then, the E. coli bodies whose expression was induced were collected, and were suspended in a sonication buffer [50 mM Bis-Tris-HCl (pH 7.0), 150 mM NaCl, 1 mM dithiothreitol, 10% glycerol]. After an ultrasonic crushing machine was used to crush bacterial cells, the mixture was subjected to centrifugal separation, and crude extraction fractions were obtained from the supernatant. A 100 mM Bis-Tris-HCl solution (pH 7.2, containing 5 mM 2-oxoglutaric acid, 10 mM sodium ascorbate, and 200 μM FeSO4) containing a 50 μM substrate was added to the mixture, and was allowed to react.
(§3) The obtained reaction product was analyzed through LC-MS (manufactured by Waters, product name: UPLC-ESI-MS ACQUITY). As the column, ACQUITY HSS T3 1.8 μm φ 2.1×100 mm (manufactured by Waters) was used. […]

[2] = system: Sc23DOX; experiment: as above; type: biochemical, S. chacoense; settings: 50 μM substrate, crude extraction fraction of E. coli expressing Sc23DOX, 2-oxoglutaric acid, sodium ascorbate, FeSO4, pH 7.2
Description: as §1, §2, §3

[3] = system: S123ACT; experiment: Detection of in vitro enzyme activity of 23ACT (LC-MS of reaction product); type: biochemical, S. lycopersicum; settings: 50 μM substrate, crude extraction fraction of E. coli expressing S123ACT, 400 μM acetyl CoA, pH 7.2
Description: (§4) First, in order to synthesize 23ACT in vitro, the S123ACT gene and the Sc23ACT gene were each linked to a pCold ProS2 (manufactured by Takara Bio Inc.), and were introduced into E. coli BL21 (DE3). The obtained recombinant E. coli was cultured at 37° C. until the OD600 value reached 0.5, was cooled to 15° C., and was left to stand for 30 minutes. IPTG was added thereto so that the final concentration reached 0.1 mM, and the mixture was cultured under shaking at 15° C. for 24 hours, to induce expression of the recombinant protein. Then, the E. coli bodies whose expression was induced were collected, and were suspended in a sonication buffer [50 mM Bis-Tris-HCl (pH 7.0), 150 mM NaCl, 1 mM dithiothreitol, 10% glycerol]. After an ultrasonic crushing machine was used to crush bacterial cells, the mixture was subjected to centrifugal separation, and crude extraction fractions were obtained from the supernatant. A 100 mM Bis-Tris-HCl solution (pH 7.2, containing 400 μM acetyl COA) containing a 50 μM substrate was added to the mixture, and was allowed to react.
(§5) The obtained reaction product was analyzed through LC-MS (manufactured by Waters, product name: UPLC-ESI-MS ACQUITY). As the column, ACQUITY HSS T3 (1.8 μm φ2.1×100 mm) (manufactured by Waters) was used. In LC analysis, gradient elution was performed using a mobile phase (A: 0.1% formic acid water and B: acetonitrile). The gradient elution was performed under the condition: 0 to 30 minutes, 90% A/10% B to 45% A/55% B; 30 to 31 minutes, 45% A/55% B to 100% B; and maintaining for from 31 to 35 minutes, 100% B.

[4] = system: Sc23ACT; experiment: as above; type: biochemical, S. chacoense; settings: 50 μM substrate, crude extraction fraction of E. coli expressing Sc23ACT, 400 μM acetyl CoA, pH 7.2
Description: as §4, §5

[5] = system: St23ACT; experiment: Detection of in vitro enzyme activity of St23ACT (LC-MS of reaction product); type: biochemical, S. tuberosum; settings: same method as Example 4, crude extraction fraction of E. coli expressing St23ACT
Description: as §4
The obtained reaction product was analyzed through LC-MS (manufactured by Waters, product name: UPLC-ESI-MS ACQUITY). As the column, ACQUITY HSS T3 (1.8 μm φ2.1×100 mm) (manufactured by Waters) was used. […]
The St23ACT gene identified in Example 12 was analyzed in the same method described in Example 4. […]

[6] = system: St23DOX; experiment: Detection of in vitro enzyme activity of St23DOX (LC-MS of reaction product); type: biochemical, S. tuberosum; settings: same method as Example 3, crude extraction fraction of E. coli expressing St23DOX
Description: as §1, §2
The obtained reaction product was analyzed through LC-MS (manufactured by Waters, product name: UPLC-ESI-MS ACQUITY). […]
The St23DOX gene identified in Example 10 was analyzed in the same method described in Example 3. […]

| Compound | introduction of a hydroxy group to position 23 of the substrate (reaction product) [1] | introduction of a hydroxy group to position 23 of the substrate (reaction product) [2] | acetylation of the hydroxy group of position 23 of the substrate (reaction product) [3] | acetylation of the hydroxy group of position 23 of the substrate (reaction product) [4] | acetylation of the hydroxy group of position 23 of the substrate (reaction product) [5] | introduction of a hydroxy group to position 23 of the substrate (reaction product) [6] |
| --- | --- | --- | --- | --- | --- | --- |
| C[C@H]1CC[C@@H]2[C@@H](C)[C@H]3[C@H](C[C@H]4[C@@H]5CC=C6C[C@@H](O[C@@H]7O[C@H](CO)[C@H](O)[C@H](O[C@@H]8O[C@H](CO)[C@@H](O)[C@H](O)[C@H]8O)[C@H]7O[C@@H]7O[C@@H](C)[C@H](O)[C@@H](O)[C@H]7O)CC[C@]6(C)[C@H]5CC[C@]34C)N2C1 [α-solanine] | a new reaction product was not obtained | a new reaction product was not obtained | – | – | – | – |
| 23 hydroxy tomatine | – | – | a product to which an acetoxy group was introduced at position 23 was obtained | a product to which an acetoxy group was introduced at position 23 was obtained | a product to which an acetoxy group was introduced at position 23 was obtained | – |
| C[C@H]1CC[C@]2(NC1)O[C@H]1C[C@H]3[C@@H]4CC[C@H]5C[C@@H](O[C@@H]6O[C@H](CO)[C@H](O[C@@H]7O[C@H](CO)[C@@H](O)[C@H](O[C@@H]8OC[C@@H](O)[C@H](O)[C@H]8O)[C@H]7O[C@@H]7O[C@H](CO)[C@@H](O)[C@H](O)[C@H]7O)[C@H](O)[C@H]6O)CC[C@]5(C)[C@H]4CC[C@]3(C)[C@H]1[C@@H]2C [α-tomatine] | a product to which a hydroxy group was introduced at position 23 was obtained | a product to which a hydroxy group was introduced at position 23 was obtained | – | – | – | a product to which a hydroxy group was introduced at position 23 can be obtained |
| C[C@H]1C[C@H](O)[C@@H]2[C@@H](C)[C@H]3[C@H](C[C@H]4[C@@H]5CC=C6C[C@@H](O[C@@H]7O[C@H](CO)[C@H](O)[C@H](O[C@@H]8O[C@H](CO)[C@@H](O)[C@H](O)[C@H]8O)[C@H]7O[C@@H]7O[C@@H](C)[C@H](O)[C@@H](O)[C@H]7O)CC[C@]6(C)[C@H]5CC[C@]34C)N2C1 [leptinine II, 3β-[(3-O-β-D-glucopyranosyl-2-O-α-L-rhamnopyranosyl-β-D-galactopyranosyl)oxy]solanid-5-en-23β-ol] | – | – | a new reaction product was not obtained | a new reaction product was not obtained | – | – |
| CC1CC(O)C2C(C)C3C(CC4C5CC=C6CC(OC7OC(CO)C(OC8OC(C)C(O)C(O)C8O)C(O)C7OC7OC(C)C(O)C(O)C7O)CCC6(C)C5CCC43C)N2C1 [leptinine I, 3β-[2-O,4-O-bis(α-L-rhamnopyranosyl)-β-D-glucopyranosyloxy]solanid-5-en-23β-ol] | – | – | a new reaction product was not obtained | a new reaction product was not obtained | – | – |
